Laboratory results taken from publication doi:10.1101/2021.06.14.448287v1, “Plasmodium falciparum protein Pfs16 is a target for transmission-blocking antimalarial drug development” (biorxiv, 2021).

The molecules below were run on T1, P. falciparum NF54 stage V male gametocytes (assay: microbe, parasite or virus in culture). Settings: Plasmodium falciparum, NF54, male gamete formation.
T1 construct: NF54
Set-up: male gamete formation assay (DGFA format), inhibition of exflagellation of stage V gametocytes
Description: Yahiya et al. 2021 Supplement Page 26 of 27 345 IC50 determination by male gamete formation assay 346 The male gamete formation assay (MGFA) was adapted from the previously described dual gamete formation assay (DGFA)3 347 to identify male gamete targeted activity. Briefly, compounds 348 were dispensed into 384-well plates using the HP D300 Digital Dispenser in serial dilutions. Single 349 point controls, a DMSO negative control (0.25% final assay volume) and 20 µM DDD01028076 350 positive control, were included across the plate. Maintaining RT, 10 µl ookinete medium was 351 dispensed into each well, followed by addition of 50 µl of stage V NF54 gametocyte culture (day 14 352 post-induction and onwards). […] Plates were then immediately incubated at 4°C 354 for 4 minutes, followed by 28°C for 5 minutes. Table 1. DDD01035881 and derivatives Activity of DDD01035881 and structural analogues as determined in a structure activity relationship study. IC50s depicted represent the inhibition of male gamete viability as determined by the male gamete formation format of the DGFA. Values are expressed as an average ± SEM of 3-8 biological replicates, ≥ 2 technical replicates.[15]

`O=S(=O)(NCC1(O)CCOc2ccccc21)c1ccccc1Br` (stereo not shown) [DDD01028076] and `O=S(=O)(NCC1(O)CCOc2ccccc21)c1ccc(Br)s1` (stereo not shown) [DDD01035881] are within error of each other in IC50: 367 ± 60 nM for the first, 292 ± 76 nM for the second.

First: O=S(=O)(NCC1(O)CCOc2ccc(Br)cc21)c1cccc(Br)c1 (stereo not shown) [compound 1, parent molecule 1]
Second: O=S(=O)(NCC1(O)CCOc2ccc(O)cc21)c1cccc(Br)c1 (stereo not shown) [compound 6, 6]
The IC50 of the first is lower: 785 ± 48 nM for the first, greater than 11000 nM for the second.

Compared with `C#Cc1ccc2c(c1)C(O)(CNS(=O)(=O)c1cccc(N=[N+]=[N-])c1)CCO2` (stereo not shown) [compound 2, probe 2], `C#Cc1ccc2c(c1)C(O)(CNS(=O)(=O)c1cccc(Br)c1)CCO2` (stereo not shown) [compound 3, 3] is 11-fold lower in IC50: 3980 ± 211 nM for the first, 370 ± 79 nM for the second. The second is the more potent here.

`C#Cc1cccc(S(=O)(=O)NCC2(O)CCOc3ccccc32)c1` (stereo not shown) [compound 4, 4] and `CN(CC1(O)CCOc2ccccc21)S(=O)(=O)c1cccc(Br)c1` (stereo not shown) [compound 10, 10] cannot be ordered by IC50: greater than 1000 nM for the first, greater than 10000 nM for the second.

`C#Cc1ccc2c(c1)C(O)(CN(CCC1(C)N=N1)S(=O)(=O)c1cccc(Br)c1)CCO2` (stereo not shown) [compound 5, 5] and `C=CCOc1ccc2c(c1)C(O)(CNS(=O)(=O)c1cccc(Br)c1)CCO2` (stereo not shown) [compound 7, 7] cannot be ordered by IC50: greater than 25000 nM for the first, greater than 25000 nM for the second.

In the case of `CCCCn1cc(-c2ccc3c(c2)C(O)(CNS(=O)(=O)c2cccc(Br)c2)CCO3)nn1` (stereo not shown) [compound 9, 9], the IC50 is reported as greater than 25000 nM.

The molecules below were run against T2, Pfs16 (Plasmodium falciparum, UniProt Q6ZMA7) (assay: CETSA melt curve with immunoblot). Settings: activated stage V gametocyte lysate, 100 uM compound, 1% Triton X-100, pH 7.5; also isothermal dose response at 78.4 °C.
T2 construct: native full-length protein in stage V gametocytes or their Triton X-100 lysate; 157 residues, 16 kDa, two transmembrane domains
T2 sequence (Q6ZMA7 26-157): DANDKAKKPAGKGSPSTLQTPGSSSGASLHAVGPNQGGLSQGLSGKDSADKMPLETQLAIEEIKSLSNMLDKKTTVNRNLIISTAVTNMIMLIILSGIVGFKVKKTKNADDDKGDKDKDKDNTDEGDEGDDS
Format: biochemical

For `O=S(=O)(NCC1(O)CCOc2ccccc21)c1ccc(Br)s1` (stereo not shown) [DDD01035881], the Tm shift was “DDD01035881 treatment clearly resulted in a positive shift in the Pfs16 melting curve”.

What follows are molecules tested against T2, Pfs16 (assay: photoaffinity labelling, click capture, pulldown, TMT nLC-MS/MS, in-gel fluorescence and immunoblot). Settings: live stage V gametocytes, 2.5-10 uM, 254 nm UV; covalent after irradiation.
Format: cell-based

With `C#Cc1ccc2c(c1)C(O)(CNS(=O)(=O)c1cccc(N=[N+]=[N-])c1)CCO2` (stereo not shown) [compound 2, probe 2] the “photoaffinity labelling, click capture, pulldown, TMT nLC-MS/MS, in-gel fluoresc” value was “a dose-dependent pulldown of Pfs16 was clearly observed”.
